Here are results for eleven molecules from patent US20230174521A1, “NOVEL DIACYLGLYCERIDE O-ACYLTRANSFERASE 2 INHIBITORS” (Merck Sharp & Dohme LLC, priority 2020, published 2023).

What is called IC50 is the concentration that inhibits the measured activity by half.

The target of this experiment is T1, human DGAT2 (hDGAT2) (Homo sapiens, UniProt Q96PD7).
T1 construct: made in house; host or cells: Sf-9 insect cells (baculovirus infection); membrane fraction
T1 sequence (Q96PD7 1-388): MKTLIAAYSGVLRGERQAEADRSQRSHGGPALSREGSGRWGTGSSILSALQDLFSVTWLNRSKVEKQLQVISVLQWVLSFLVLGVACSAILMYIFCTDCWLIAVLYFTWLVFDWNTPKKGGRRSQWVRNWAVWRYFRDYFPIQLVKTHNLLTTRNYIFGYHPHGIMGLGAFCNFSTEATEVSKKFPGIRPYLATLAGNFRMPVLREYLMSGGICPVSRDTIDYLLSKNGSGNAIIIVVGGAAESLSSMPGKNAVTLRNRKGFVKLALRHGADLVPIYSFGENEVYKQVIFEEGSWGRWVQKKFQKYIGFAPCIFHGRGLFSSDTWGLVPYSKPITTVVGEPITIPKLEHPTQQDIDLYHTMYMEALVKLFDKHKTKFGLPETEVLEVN
The experiment is described as follows: DGAT2 enzymatic activity assay (LC/MS/MS detection of 13C18-triolein, Sf-9 membrane prep). In kind it is biochemical. As to conditions: hDGAT2 Sf-9 membrane, 25 μM diolein, 5 μM 13C oleoyl-CoA, rt. As for the experimental part: Sf-9 insect cells were maintained in Grace's insect cell culture medium with 10% heated-inactivated fetal bovine serum, 1% Pluronic F-68 and 0.14 μg/ml Kanamycine sulfate at 27° C. in a shaker incubator. After infection with untagged baculovirus expressing human DGAT2 (hDGAT2) at multiplicity of infection (MOI) 3 for 48 hours, cells were harvested. Cell pellets were suspended in buffer containing 10 mM Tris-HCl pH 7.5, 1 mM EDTA, 250 mM sucrose and Complete Protease Inhibitor Cocktail (Sigma Aldrich), and sonicated on ice. Cell debris were removed by centrifugation at 2000×g for 15 minutes. Membrane fractions were isolated by ultracentrifugation (100,000×g), resuspended in the same buffer, and frozen (−80° C.) for later use. The protein concentration was determined with the Pierce™ BCA Protein Assay Kit (Thermo Fisher Scientific). Expression of protein levels was analyzed by immunoblotting with rabbit anti-DGAT2 antibody (Abcam, ab102831) and donkey anti-rabbit IgG H&L Alexa Fluor® 647 (Abcam, ab150075) followed by detection using Typhoon FLA9000 (GE Healthcare).
LC/MS/MS analyses were performed using Thermal Fisher's LX4-TSQ Vantage system. This system consists of an Agilent binary high-performance liquid chromatography (HPLC) pumps and a TSQ Vantage triple quadrupole MS/MS instrument. For each sample, 2 μL samples from the top organic layer of in-plate liquid-liquid extraction were injected onto a Thermo Betabasic C4 column (2.1 mm×20 mm, 5 μm particle size). The samples were then eluted using the following conditions; mobile phase: Isopropanol: acetonitrile/10 mM ammonium formate=50/35/15 (v/v/v), flow rate: 0.8 mL/min, temperature: 25° C. Data was acquired in positive mode using a heated electrospray ionization (HESI) interface. The operational parameters for the TSQ Vantage MS/MS instrument were a spray voltage of 3000 V, capillary temperature of 280° C., vaporizer temperature 400° C., sheath gas 45 arbitrary unit, Aux gas 10 arbitrary units, S-lens 165 and collision gas 1.0 mTorr. […] (SRM) chromatograms of ^13C18-triolein (Q1: 920.8>Q3:621.3) and internal standard ^13C21-triolein (Q1: 923.8>Q3:617.3) were collected for 33 sec. The peak area was integrated by Xcalibur Quan software. The ratio between the ^13C18triolein generated in the reaction and spiked in internal standard ^13C21-triolein was used to generate percentage inhibition and IC50 values. Compound percentage inhibition was calculated by the following formula: Inhibition %=1−[(compound response−low control)/(high control−low control)]×100%. Potent compounds were titrated and IC50 were calculated by 4 parameter sigmoidal curve fitting formula.
DGAT2 activity was determined by measuring the amount of enzymatic product ^13C18-triolein (^13C-1,2,3-Tri(cis-9-octadecenoyl)glycerol) using the membrane prep mentioned above. The assay was carried out in ABgene 384-well assay plates in a final volume of 25 μL at rt. The assay mixture contained the following: assay buffer (100 mM Tris.Cl, pH 7.0, 20 mM MgCl2, 5% ethanol), 25 μM of diolein, 5 μM of ^13C oleoyl-CoA and 8 ng/μL of DGAT2 membrane.
Molecule `CCC(O)c1nn(-c2cccc(OC(F)F)c2)c2ccc(C(=O)NC3(C)CS(=O)(=O)C3)cc12` (racemic) [Example 28, 1-(3-(difluoromethoxy)phenyl)-3-(1-hydroxypropyl)-N-(3-methyl-1,1-dioxidothietan-3-yl)-1H-indazole-5-carboxamide] had an IC50 of 78 nM.

For `CC1(NC(=O)c2ccc3c(c2)c(C(O)C(F)(F)F)nn3-c2cccc(OC(F)F)c2)CS(=O)(=O)C1` (racemic) [Example 30, 1-(3-(difluoromethoxy)phenyl)-N-(3-methyl-1,1-dioxidothietan-3-yl)-3-(2,2,2-trifluoro-1-hydroxyethyl)-1H-indazole-5-carboxamide], the IC50 was found to be 47 nM.

As to `CC1(NC(=O)c2ccc3c(c2)c(C(O)C(F)F)nn3-c2cccc(OC(F)F)c2)CS(=O)(=O)C1` (racemic) [Example 31], the IC50 was determined as 94 nM.

With `CCC(O)c1nn(-c2cccc(OC(F)F)c2)c2ccc(C(=O)NC3(C)CS(=O)(=O)C3)cc12` (single isomer, unassigned) [Example 28a, 1-(3-(difluoromethoxy)phenyl)-3-(1-hydroxypropyl)-N-(3-methyl-1,1-dioxidothietan-3-yl)-1H-indazole-5-carboxamide], inhibition was half-maximal at 24 nM (IC50).

In turn, `CCC(O)c1nn(-c2cccc(OC(F)F)c2)c2ccc(C(=O)NC3(C)CS(=O)(=O)C3)cc12` (single isomer, unassigned) [Example 28b, 1-(3-(difluoromethoxy)phenyl)-3-(1-hydroxypropyl)-N-(3-methyl-1,1-dioxidothietan-3-yl)-1H-indazole-5-carboxamide] gave an IC50 of 70 nM.

For `CC1(NC(=O)c2ccc3c(c2)c(C(O)C2CC2)nn3-c2cccc(OC(F)F)c2)CS(=O)(=O)C1` (single isomer, unassigned) [Example 29a, 3-[cyclopropyl(hydroxy)methyl] - 1-[3-(difluoromethoxy)phenyl]-N-(3-methyl-1,1-dioxo-thietan-3-yl)indazole-5-carboxamide], the IC50 was found to be 5.1 nM.

In the case of `CC1(NC(=O)c2ccc3c(c2)c(C(O)C2CC2)nn3-c2cccc(OC(F)F)c2)CS(=O)(=O)C1` (single isomer, unassigned) [Example 29b, 3-[cyclopropyl(hydroxy)methyl] - 1-[3-(difluoromethoxy)phenyl]-N-(3-methyl-1,1-dioxo-thietan-3-yl)indazole-5-carboxamide], the IC50 amounted to 205 nM.

Molecule `CC1(NC(=O)c2ccc3c(c2)c(C(O)C(F)(F)F)nn3-c2cccc(OC(F)F)c2)CS(=O)(=O)C1` (single isomer, unassigned) [Example 30a, 1-[3-(difluoromethoxy)phenyl]-N-(3-methyl-1,1-dioxo-thietan-3-yl)-3-(2,2,2-trifluoro-1-hydroxy-ethyl)indazole-5-carboxamide] had an IC50 of 84 nM.

Take `CC1(NC(=O)c2ccc3c(c2)c(C(O)C(F)(F)F)nn3-c2cccc(OC(F)F)c2)CS(=O)(=O)C1` (single isomer, unassigned) [Example 30b, 1-[3-(difluoromethoxy)phenyl]-N-(3-methyl-1,1-dioxo-thietan-3-yl)-3-(2,2,2-trifluoro-1-hydroxy-ethyl)indazole-5-carboxamide]: the IC50 amounted to 113 nM.

For `CC(O)c1nn(-c2cccc(OC(F)F)c2)c2ncc(C(=O)NC3(C)CS(=O)(=O)C3)cc12` (single isomer, unassigned) [Example 38a, 1-(3-(difluoromethoxy)phenyl)-3-(l-hydroxyethyl)-N-(3-methyl-1,1-dioxidothietan-3-yl)-1H-pyrazolo[3,4-b]pyridine-5-carboxamide], the midpoint of inhibition, the IC50, lay at 38 nM.

Regarding `CC(O)c1nn(-c2cccc(OC(F)F)c2)c2ncc(C(=O)NC3(C)CS(=O)(=O)C3)cc12` (single isomer, unassigned) [Example 38b, l-(3-(difluoromethoxy)phenyl)-3-(l-hydroxyethyl)-N-(3-methyl-1,1-dioxidothietan-3-yl)-1H-pyrazolo[3,4-b]pyridine-5-carboxamide], 54 nM corresponded to half-maximal inhibition (IC50).
